Data from ChEMBL document CHEMBL1143609, “Conformationally restricted analogues of psorospermin: design, synthesis, and bioactivity of natural-product-related bisfuranoxanthones” (J Med Chem, 2005).
pIC50: −log10 of the molar value.

What was measured:
Type in all cases: functional, cell-based
Conditions in all cases: Homo sapiens
NCI-H522 = experiment: Inhibitory concentration against H522 cell line
HT-29 = experiment: Inhibitory concentration against HT-29 cell line
HeLa = experiment: Inhibitory concentration against HeLa cell line
HepG2 = experiment: Inhibitory concentration against HepG2 cell line
COLO 320 = experiment: Inhibitory concentration against COLO 320 cell line
MIA PaCa-2 = experiment: Inhibitory concentration against MIA PaCa cell line

| SMILES | pIC50 (NCI-H522) | pIC50 (HT-29) | pIC50 (HeLa) | pIC50 (HepG2) | pIC50 (COLO 320) | pIC50 (MIA PaCa-2) |
| --- | --- | --- | --- | --- | --- | --- |
| COc1cccc2c(=O)c3c(O)cc4c(c3oc12)[C@@H]1OC[C@](O)(CCl)[C@@H]1O4 | 5.15 | 5.15 | 5.12 | < 4.52 | 6.05 | 5.42 |
| COc1cccc2c(=O)c3c(O)cc4c(c3oc12)C[C@H]([C@](C)(O)CO)O4 | < 4.52 | < 4.52 | < 4.52 | < 4.52 | < 4.52 | < 4.52 |
| COc1cccc2c(=O)c3c(O)cc4c(c3oc12)[C@@H]1OC[C@]2(CO2)[C@@H]1O4 | 4.71 | < 4.52 | 4.49 | 4.88 | 5.04 | 4.96 |
| COc1cccc2c(=O)c3c(O)c4c(cc3oc12)O[C@@H]1[C@H]4OC[C@]1(C)O | < 4.52 | < 4.52 | 4.63 | < 4.52 | < 4.52 | < 4.52 |
| COc1cccc2c(=O)c3c(O)c4c(cc3oc12)O[C@@H]1[C@H]4OC[C@@]1(C)O | < 4.52 | < 4.52 | 4.63 | < 4.52 | < 4.52 | < 4.52 |
| COc1cccc2c(=O)c3c(O)cc4c(c3oc12)C[C@H]([C@@](C)(O)CO)O4 | 4.55 | < 4.52 | < 4.52 | < 4.52 | 4.72 | 4.62 |
| C=C1CO[C@H]2c3c(cc(O)c4c(=O)c5cccc(OC)c5oc34)O[C@@H]12 | < 4.52 | < 4.52 | < 4.52 | < 4.52 | < 4.52 | < 4.52 |
| COc1cccc2c(=O)c3c(O)cc4c(c3oc12)[C@@H]1OC[C@](O)(CO)[C@@H]1O4 | 4.70 | 4.44 | 4.72 | < 4.52 | 4.91 | 4.91 |
| COc1cc2c(c3oc4c(O)cccc4c(=O)c13)C[C@H]([C@@]1(C)CO1)O2 [PSOROSPERMIN] | 6.35 | 6.19 | 6.15 | 6.42 | 7.16 | 6.68 |
